# Test results: patent US20020086342A1, “Assays for identifying phosphatase inhibitors” (priority 2000, published 2002)
# How the values were obtained:
# GST-PTPbr7 [1] = biological target: T1, GST-PTPbr7 (Mus musculus, UniProt Q62132); assay: PTPbr7 inhibition assay: fluorogenic substrate (O-methyl fluorophosphate); format: biochemical; conditions: sodium orthovanadate 1 mM; O-methyl fluorophosphate 10 μM; GST-PTPbr7 4 μg/mL; 30 min, room temperature; in absence of inhibitor 4100.00
# T1 construct: purchased PanVera
# T1 sequence (Q62132 24-656): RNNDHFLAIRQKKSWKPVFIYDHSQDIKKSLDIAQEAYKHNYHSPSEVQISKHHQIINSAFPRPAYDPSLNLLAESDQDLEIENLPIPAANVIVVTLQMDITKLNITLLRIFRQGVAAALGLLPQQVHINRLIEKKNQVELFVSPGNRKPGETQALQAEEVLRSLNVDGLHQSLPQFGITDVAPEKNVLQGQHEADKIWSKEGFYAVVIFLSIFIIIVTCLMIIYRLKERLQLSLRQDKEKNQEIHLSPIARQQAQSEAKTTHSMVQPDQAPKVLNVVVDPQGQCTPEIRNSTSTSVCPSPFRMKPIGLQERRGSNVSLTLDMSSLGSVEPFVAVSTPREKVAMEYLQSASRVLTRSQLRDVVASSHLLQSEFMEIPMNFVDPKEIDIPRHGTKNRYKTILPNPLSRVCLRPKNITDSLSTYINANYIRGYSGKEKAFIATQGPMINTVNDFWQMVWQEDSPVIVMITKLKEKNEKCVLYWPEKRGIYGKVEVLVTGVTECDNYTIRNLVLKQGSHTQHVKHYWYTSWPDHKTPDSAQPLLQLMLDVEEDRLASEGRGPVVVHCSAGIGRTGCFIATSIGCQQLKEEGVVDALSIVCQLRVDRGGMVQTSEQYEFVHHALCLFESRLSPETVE
# Method: The ability of a test agent (positive control, non-specific tyrosine phosphatase inhibitor, sodium orthovanadate) to inhibit the dephosphorylation of a fluorogenic substrate by a PTPbr7 fusion protein was determined as follows.
# 80 μL of the diluted substrate (final concentration of 10 μM) was then added to each of two wells of a 96-well microtiter plate (COSTAR #3690 plate), followed by, in one of the wells, sodium orthovanadate (1 mM, final concentration), and in both wells, 20 μL of GST-PTPbr7 (4 μg, PanVera) to give a final enzyme concentration in each of the assays of 4 μg/mL. The reactions were incubated at room temperature for 30 min. For each reaction, the fluorescent emission was measured by excitation at 485 nm and emission at 535 nm using a Victor II plate reader (Packard). The presence of the test agent (sodium orthovanadate) in the reaction caused a decrease in the fluorescent signal (1250.00) compared to the reaction in the absence of inhibitor (4100.00).
# GST-PTPbr7 [2] = biological target: T1, GST-PTPbr7; assay: PTPbr7 inhibition assay: peptide substrate (malachite green readout); format: biochemical; conditions: sodium orthovanadate 1 mM; peptide ENDpYINASL 0.1 mM; GST-PTPbr7 4 μg; 30 min, 25° C., pH 7.4; in absence of inhibitor 0.65
# Method: The ability of a test agent (positive control, non-specific tyrosine phosphatase inhibitor, sodium orthovanadate) to inhibit the dephosphorylation of a peptide having a phosphotyrosine residue by a PTPbr7 fusion protein was determined as follows.GST-PTPbr7 (4 μg, PanVera) is mixed together with the peptide [ENDpYINASL] (0.1 mM, American Peptide Company), with and without sodium orthovanadate (1 mM, SIGMA®-Aldrich), in a total volume of 25 μL assay buffer (50 mM Tris, 0.15 M NaCl, 5 mM DTT, 0.1% BSA), pH 7.4, at 25° C., in separate wells of a ½ volume 96-well microtiter plate (COSTAR #3690 plate), for 30 min.
# The reactions were then terminated by the addition of 100 μL of MG/AM stop solution. MG (Malachite Green) solution was obtained from SIGMA®-Aldrich cat no. M9636, and can be prepared by dissolving 500 mg/L in dH2O, filtering the solution with a Whatman #1 filter, and storing at 4° C. AM (Ammonium Molybdate) solution was obtained from SIGMA®Aldrich cat. no. A7302, 42 g/L in 4 M HCl (345 mL concentration HCl/L, stored at 4° C.). MG/AM mixture was prepared by mixing one part AM to 3 parts MG, stirring for at least 30 min, at room temperature, filtering with a Whatman #5, and storing at 4° C. […]
# The plate is then incubated at room temperature for 15 min and, after removing any bubbles, the optical density of the solution in each well was read at A620 (620 nm, spectrophotometer). […]
# [3] = tested on: PTPbr7 mRNA in PC12 cells; conditions: PC12 cells following treatment with NGF; Sharma and Lombroso 1995; cited from earlier work
# PC12 cells = assay: NGF-induced neurite outgrowth in PC12 cell lines transfected with full length mouse PTPbr7; format: cell-based, rat; conditions: 50 ng/mL NGF for 6 days
# From the text: Total mouse brain RNA (Strategene) was subjected to RT-PCR cloning using […] as the 5′ primer, and […] as the 3′ primer (CPMB, see, in particular, Chapter 15, The Polymerase Chain Reaction, Supplement 30). The cDNA clone (full length mouse PTPbr7) was introduced into PC12 cells by transfection using Lipofectamine™ Reagent (Life Technologies) and substantially following the instructional sheet (for adherent cells, see also, CPMB, in particular, Chapter 9, Introduction of DNA into Mammalian Cells, Supplement 39) which specifies the concentration of DNA and reagent, cell density, transfection times, and transfection protocol. Stable cell lines were selected in (200 μg/mL) G418 (Life Technologies), as also provided by the instructional sheet, and the overexpressing cell lines were identified by Northern Blot analysis (see CPMB, in particular, Chapter 4, Preparation and Analysis of RNA, Chapter 4.9.1, Analysis of RNA by Northern Blot Hybridization, Supplement 26). The transfected cell lines were then treated with 50 ng/mL NGF (Life Technologies) for 6 days. The degree of neurite outgrowth was quantitated using photomicrographs where the total number of cells in the field was counted, then the cells were recounted that had one or more neurites that were greater than or equal to one cell body diameter in length, and a “% neurites” was determined.
"fluorescent signal (excitation 485 nm, emission 535 nm) (GST-PTPbr7 [1])",optical density 620 nm (GST-PTPbr7 [2]),Compound,upregulation of PTPbr7 mRNA [3],"% Neurite on Day 6 (+NGF) (PC12 cells; cell line br7-9, PTPbr7 expression none)","% Neurite on Day 6 (+NGF) (PC12 cells; cell line br7-11, PTPbr7 expression high)","% Neurite on Day 6 (+NGF) (PC12 cells; cell line br7-12, PTPbr7 expression high)","% Neurite on Day 6 (+NGF) (PC12 cells; cell line br7-13, PTPbr7 expression high)"
1250.00,0.10,[Na+].[Na+].[Na+].[O]=[V]([O-])([O-])[O-] [sodium orthovanadate],–,–,–,–,–
–,–,"NGF: Nerve growth factor, a neurotrophic factor which mediates the survival, differentiation and maintenance of specific populations of neurons",8 fold,52%,26%,24%,32%
